Laboratory results as given in US9815788B2, “Anti-angiogenic compounds” (University College Dublin National University of Ireland, …, priority 2012, dated 2017).

Tests used:
[1] = tested on: zebrafish hyaloid vasculature; test: Quantification of primary hyaloid vasculature branch number in Tg(fli1:EGFP) zebrafish; type: in vivo; conditions: for inhibition of developmental angiogenesis of the hyaloid vasculature (number of primary hyaloid vessels): typically 10 μM or 5 μM, from 24 hpf, vs DMSO control; for dose-dependent inhibition of development of hyaloid vessels: decreasing doses 20, 10, 7.5, 5, 2.5, 1 and/or 0.5 μM
Procedure: (§1) All experiments were carried out under ethical approval granted by the UCD animal research ethics committee. Tg(fli1:EGFP) zebrafish were maintained according to standard procedures on a 14 hr light/10 hr dark cycle at 28° C. Embryos were obtained by natural spawning and developmental stages established by time and morphological criteria. […] Larvae were euthanised, and fixed in 4% PFA at 4° C. overnight before analysis.
Overall patterning of the vasculature (fin, gut and intersegmental vessels) was examined for abnormalities. Right lenses were dissected from the larvae and transferred to depression slides for observation under epi-fluorescence in the Olympus SZX16. Patterning of the hyaloid vessels on the treated larval lenses was compared to DMSO controls and the archetypal pattern previously described (Alvarez et al., 2007; Alvarez et al., 2009).
as §1, with “analysis. Lenses were dissected from the larvae and transferred to depression slides for observation under epi-fluorescence in the Olympus SZX16. Patterning of the hyaloid vessels on the treated larval lenses was compared to DMSO controls and the archetypal pattern previously described (Alvarez et al., 2007; Alvarez et al., 2009).” for “analysis.”

[2] = tested on: zebrafish intersegmental vessels; test: Quantification of intersegmental vessel number in zebrafish; type: in vivo
Procedure: […] Larvae were manually dechorionated, euthanised, and fixed in 4% PFA at 4° C. overnight before analysis. The larvae were then washed with PBS and transferred to depression slides for observation under epi-fluorescence in an Olympus SZX16 fluorescent microscope. The number of intersegmental vessels was counted and the average number was graphed for each drug.
Larvae were manually dechorionated, euthanised, and fixed in 4% PFA at 4° C. overnight before analysis. The larvae were then washed with PBS and transferred to depression slides for observation under epi-fluorescence in an Olympus SZX16 fluorescent microscope. The number of intersegmental vessels was counted and the average number was graphed for each drug.

Row | Structure (SMILES) | inhibition of developmental angiogenesis of the hyaloid vasculature (number of primary hyaloid vessels) [1] | inhibition of developmental angiogenesis of intersegmental vessels (number of intersegmental vessels) ([2]; 10 μM, from 6 hpf) | further results
1 | Oc1ccc(-c2ccc3c(c2)OCO3)cc1CN1CCc2ccccc2C1 [Compound 11F-978, 4-(1,3-benzodioxol-5-yl)-2-(3,4-dihydro-2(1H)-isoquinolinylmethyl)phenol] | inhibit developmental angiogenesis of the zebrafish hyaloid vasculature in a statistically significant manner | – | –
2 | C/C(=C\c1ccccc1O)c1ccc2ccccc2n1 [Compound 11B_CC11, (E)-2-(2-Quinolin-2-yl-propenyl)-phenol] | inhibit developmental angiogenesis of the zebrafish hyaloid vasculature in a statistically significant manner | inhibit developmental angiogenesis of zebrafish intersegmental vessels in a statistically significant manner | –
3 | Oc1cccc(C#Cc2ccc3ccccc3n2)c1 [Compound 11B_CC15, 3-Quinolin-2-yl-ylethynyl-phenol] | – | inhibit developmental angiogenesis of zebrafish intersegmental vessels in a statistically significant manner | –
4 | CCOc1ccccc1C=Cc1ccc2cccc(O)c2n1 [Compound 11B-739, 2-[2-(2-ethoxyphenyl)vinyl]-8-quinolinol] | inhibit developmental angiogenesis of the zebrafish hyaloid vasculature in a statistically significant manner | – | –
5 | COc1ccc(Br)cc1C=Cc1ccc2ccccc2n1 [Compound 11B-074, 2-[2-(5-bromo-2-methoxyphenyl)vinyl]quinoline] | inhibit developmental angiogenesis of the zebrafish hyaloid vasculature in a statistically significant manner | – | –
6 | Cl.Oc1cccc(C#Cc2ccc3ccccc3n2)c1 [Compound 11B_CC15_HCl, 3-Quinolin-2-yl-ylethynyl-phenol HCl salt] | – | inhibit developmental angiogenesis of zebrafish intersegmental vessels in a statistically significant manner | –
7 | Cc1cccc(/C=C/c2ccc3cccc(O)c3n2)c1O [Compound 11B-438, 2-[(E)-2-(2-Hydroxy-3-methylphenyl)vinyl]-8-quinolinol] | inhibit developmental angiogenesis of the zebrafish hyaloid vasculature in a statistically significant manner | inhibit developmental angiogenesis of zebrafish intersegmental vessels in a statistically significant manner | –
8 | Cl.Oc1ccccc1CCc1ccc2ccccc2n1 [Compound 11B_CC4_HCl, 2-(2-Quinolin-2-yl-ethyl)-phenol HCl salt] | inhibit developmental angiogenesis of the zebrafish hyaloid vasculature in a statistically significant manner | inhibit developmental angiogenesis of zebrafish intersegmental vessels in a statistically significant manner | dose-dependent inhibition of development of hyaloid vessels ([1]; HCl salt): inhibit developmental angiogenesis of zebrafish hyaloid vasculature in a dose-dependent statistically significant manner; dose-dependent inhibition of development of hyaloid vessels ([1]; listed as 11B-CC4 HCl, HCl salt): dose-dependent effect
9 | Oc1cccc2ccc(C=Cc3ccccc3Cl)nc12 [Compound 11B-736, 2-[2-(2-chlorophenyl)vinyl]-8-quinolinol] | – | inhibit developmental angiogenesis of zebrafish intersegmental vessels in a statistically significant manner | –
10 | Cl.Oc1cccc(CCc2ccc3ccccc3n2)c1 [Compound 11B_CC5_HCl, 3-(2-Quinolin-2-yl-ethyl)-phenol HCl salt] | inhibit developmental angiogenesis of the zebrafish hyaloid vasculature in a statistically significant manner | inhibit developmental angiogenesis of zebrafish intersegmental vessels in a statistically significant manner | dose-dependent inhibition of development of hyaloid vessels ([1]; HCl salt): inhibit developmental angiogenesis of zebrafish hyaloid vasculature in a dose-dependent statistically significant manner; dose-dependent inhibition of development of hyaloid vessels ([1]; listed as 11B-CC5 HCl, HCl salt): dose-dependent effect
11 | Cc1ccc2nc(/C=C/c3cccc(O)c3)ccc2c1 [Compound 11B-814, 3-[(E)-2-(6-Methyl-2-quinolinyl)vinyl]phenol] | inhibit developmental angiogenesis of the zebrafish hyaloid vasculature in a statistically significant manner | – | dose-dependent inhibition of development of hyaloid vessels [1]: dose-dependent effect
12 | CCOc1cc2c(cc1OCC)C(c1cc3c(cc1Br)OCO3)NCC2 (stereo not shown) [Compound 11F-001, 1-(6-bromo-1,3-benzodioxol-5-yl)-6,7-diethoxy-1,2,3,4-tetrahydroisoquinoline] | inhibit developmental angiogenesis of the zebrafish hyaloid vasculature in a statistically significant manner | – | –
13 | COc1ccc(I)cc1C=Cc1ccc2ccccc2n1 [Compound 11B-412, 2-[2-(5-iodo-2-methoxyphenyl)vinyl]quinoline] | – | inhibit developmental angiogenesis of zebrafish intersegmental vessels in a statistically significant manner | –
14 | COc1cc(CN2CCc3ccccc3C2)cc2c1OCO2 [Compound 11F-708, 2-[(7-methoxy-1,3-benzodioxol-5-yl)methyl]-1,2,3,4-tetrahydroisoquinoline] | inhibit developmental angiogenesis of the zebrafish hyaloid vasculature in a statistically significant manner | – | –
15 | Cl.Oc1cccc(C=Cc2ccc3ccccc3n2)c1 [Compound 11B_CC2_HCl, 3-(2-Quinolin-2-yl-vinyl)-phenol HCl salt] | inhibit developmental angiogenesis of the zebrafish hyaloid vasculature in a statistically significant manner | inhibit developmental angiogenesis of zebrafish intersegmental vessels in a statistically significant manner | –
16 | CCN1CCc2cc(OC)c(OC)cc2C1c1ccc2c(c1)OCO2 (racemic) [Compound 11F-CC10, (rac)-1-Benzo[1,3]dioxol-5-yl-6,7-dimethoxy-2-ethyl-1,2,3,4-tetrahydro-isoquinoline] | inhibit developmental angiogenesis of the zebrafish hyaloid vasculature in a statistically significant manner | – | –
17 | Oc1ccc(O)c(/C=C/c2ccc3ccccc3n2)c1 [Compound 11B_CC12, (E)-2-(2-Quinolin-2-yl-vinyl)--benzene-1,4-diol] | – | – | inhibition of developmental angiogenesis of intersegmental vessels (number of intersegmental vessels) ([2]; 11B_CC12 tested at 2.5 μM, n=2): inhibit developmental angiogenesis of zebrafish intersegmental vessels in a statistically significant manner
18 | Oc1ccccc1/C=C\c1ccc2ccccc2n1 [Compound 11B_Z, (Z)-2-(2-(Quinolin-2-yl)vinyl) phenol] | inhibit developmental angiogenesis of the zebrafish hyaloid vasculature in a statistically significant manner | inhibit developmental angiogenesis of zebrafish intersegmental vessels in a statistically significant manner | –
19 | Oc1ccccc1/C=C/c1cc(O)c2ccccc2n1 [Compound 11B-470, 2-[(E)-2-(2-Hydroxyphenyl)vinyl]-4-quinolinol] | – | inhibit developmental angiogenesis of zebrafish intersegmental vessels in a statistically significant manner | –
20 | Cl.Oc1ccc(C=Cc2ccc3ccccc3n2)cc1 [Compound 11B_CC3_HCl, 4-(2-Quinolin-2-yl-vinyl)-phenol HCl salt] | – | inhibit developmental angiogenesis of zebrafish intersegmental vessels in a statistically significant manner | –
21 | Oc1cccc(CCc2ccc3ccccc3n2)c1 [Compound 11B_CC5, 3-(2-Quinolin-2-yl-ethyl)-phenol] | inhibit developmental angiogenesis of the zebrafish hyaloid vasculature in a statistically significant manner | – | –
22 | Oc1cccc(C=Cc2ccc3ccccc3n2)c1 [Compound 11B_CC2, 3-(2-Quinolin-2-yl-vinyl)-phenol] | inhibit developmental angiogenesis of the zebrafish hyaloid vasculature in a statistically significant manner | inhibit developmental angiogenesis of zebrafish intersegmental vessels in a statistically significant manner | –
